Test results reported in patent US10342799B2, “Compositions and methods for prophylaxis and therapy for Meniere's disease” (priority 2013, dated 2019).

Test system: patients diagnosed with active definite MD (Ménière's vertigo attacks)
Assay: Retrospective and prospective review of active definite Meniere's disease patients treated with lamotrigine (vertigo attacks, DHI, side effects)
Format: in vivo, human patients
Protocol: Population. A retrospective and prospective review was performed on patients who were older than 18 years old, diagnosed with active definite MD at the Dent Dizziness, Balance and Tinnitus Center and treated with lamotrigine. Definite MD is defined as two or more episodes of vertigo that last for ≥20 minutes with documented hearing loss on at least one occasion, tinnitus and/or aural fullness, and other causes excluded. Active MD status requires patients to experience at least three vertigo attacks during the three months prior to treatment.
Clinical data. Data collected included demographic information, history of MD, prior medical treatment, clinical diagnosis, clinical presentation, stage of the disease, and frequency of Ménière's vertigo attacks prior to and after treatment. The staging of MD was based on the four-tone average of the pure-tone thresholds at 0.5, 1, 2 and 3 kHz of the worst audiogram during the six months before treatment. The questionnaires used were the Dizziness Handicap Inventory (DHI) and the Center's Dizziness Questionnaire. Current or past history of anxiety/depression, migraine problems, and use of anti-anxiety medication were also analyzed.
Outcome variable. The primary outcome measure was the reduction of Ménière's vertigo attacks at both three months after lamotrigine initiation (primarily the titration period) and three months after treatment at maintenance dosage. Secondary outcome measures included DHI scores and patient reports of clinical improvement. Data were confirmed by review of physicians' notes, vestibular and audiogram testing results, and supporting data. Means and standard deviations (SDs) were calculated for all continuous variables and proportions for all categorical variables. The primary research questions were whether or not lamotrigine led to a reduction of Ménière's vertigo attacks and whether or not lamotrigine led to improvement in quality of life for MD patients.
Statistical analysis. The overall difference in Meniere's vertigo attacks among 3 months pre-treatment, 3 months of titration, and 3 months of maintenance treatment was evaluated by Friedman's test, which is a nonparametric test for treatment differences in a randomized complete block design. The Wilcoxon signed rank sum test, which is the nonparametric version of a paired sample t-test, was used for the pairwise comparisons of Meniere's vertigo attacks from the three different time periods as well as DHI before and after treatment. Fisher's exact test was used to evaluate whether treatment effectiveness was affected by migraine or anxiety comorbidities. For all of these statistical tests, the tests were two-sided, and the level of significance was set to 0.05. Differences were considered significant if the p-value was less than 0.05.
Lamotrigine titration. All 45 patients began a titration of lamotrigine of 25 mg BID for two weeks to 50 mg BID for two weeks. Final maintenance dosages varied between 25 mg BID and 200 mg BID due to individual patient tolerance and response; 29 patients were on either 100 mg BID or 150 mg BID maintenance dosages (64%). There was one patient who was lost to follow-up. There were four patients who discontinued lamotrigine due to side effects: one experienced stomachaches and diarrhea, one complained of hallucinations, and two developed rashes.

[1] = mean (SD), three months prior to treatment: 12.7 (SD 11.6)
[2] = number of patients, value in brackets

**Q.** `Nc1nnc(-c2cccc(Cl)c2Cl)c(N)n1` [Lamotrigine, 6-(2,3-Dichlorophenyl)-1,2,4-triazine-3,5-diamine] was tested. Which “vertigo attack reduction and remission: influence of migraine comorbidity” value (Fisher's exact test, p=0.414) did it give?
**A.** not affected

**Q.** And the “vertigo attack reduction and remission: influence of anxiety/depression comorbidity” value (Fisher's exact test, p=1.000)?
**A.** not affected

**Q.** And the “patients who reported improvement and had anxiety/depression disorder” value (among the 38 improved patients)?
**A.** 28 patients

**Q.** And the “patients who reported improvement and had migraine” value (among the 38 improved patients)?
**A.** 20 patients

**Q.** And the “mean post-treatment DHI score” value (mean (SD), prior treatment DHI 47.6 (SD 19.6))?
**A.** 28.6 (SD 20.9)

**Q.** What about the “mean number of vertigo attacks after three months of maintenance dosage” value [1] of the same compound?
**A.** 1.9 (SD 4.6)

**Q.** What about the “mean number of vertigo attacks three months after initiation (primarily the titration period)” value [1] of the same compound?
**A.** 4.5 (SD 6.2)

**Q.** And the “Side effect, MD with migraine” value (number of patients)?
**A.** 1

**Q.** What about the “Side effect, MD without migraine” value (number of patients) of the same compound?
**A.** 3

**Q.** What about the “Side effect, Total” value (number of patients) of the same compound?
**A.** 4

**Q.** What about the “Vertigo attack free, MD with migraine” value (number of patients) of the same compound?
**A.** 11

**Q.** What about the “Vertigo attack free, MD without migraine” value (number of patients) of the same compound?
**A.** 10

**Q.** And the “Vertigo attack free, Total” value (number of patients)?
**A.** 21

**Q.** What about the “Vertigo reduced, MD with migraine” value (number of patients) of the same compound?
**A.** 9

**Q.** And the “Vertigo reduced, MD without migraine” value (number of patients)?
**A.** 8

**Q.** And the “Vertigo reduced, Total” value (number of patients)?
**A.** 17

**Q.** And the “Vertigo unchanged, MD with migraine” value (number of patients)?
**A.** 1 (1)

**Q.** What about the “Vertigo unchanged, MD without migraine” value (number of patients) of the same compound?
**A.** 1 (1)

**Q.** And the “Vertigo unchanged, Total” value (number of patients)?
**A.** 2

**Q.** And the “Side effect, MD with anxiety” value [2]?
**A.** 3

**Q.** What about the “Side effect, MD without anxiety” value [2] of the same compound?
**A.** 1

**Q.** What about the “Vertigo attack free, MD with anxiety” value [2] of the same compound?
**A.** 15

**Q.** What about the “Vertigo attack free, MD without anxiety” value [2] of the same compound?
**A.** 6

**Q.** What about the “Vertigo reduced, MD with anxiety” value [2] of the same compound?
**A.** 13

**Q.** What about the “Vertigo reduced, MD without anxiety” value [2] of the same compound?
**A.** 4

**Q.** And the “Vertigo unchanged, MD with anxiety” value [2]?
**A.** 1 (1)

**Q.** And the “Vertigo unchanged, MD without anxiety” value [2]?
**A.** 1 (1)

**Q.** What about the “patients with complete resolution of Ménière's vertigo attacks during the three month maintenance period” value (of 38 improved patients) of the same compound?
**A.** 21 patients

**Q.** And the “patients who discontinued lamotrigine due to side effects” value (of 45 patients)?
**A.** four

**Q.** And the “patients who discontinued with hallucinations” value (of 45 patients)?
**A.** one

**Q.** What about the “patients who discontinued with rashes” value (of 45 patients) of the same compound?
**A.** two

**Q.** What about the “patients who discontinued with stomachaches and diarrhea” value (of 45 patients) of the same compound?
**A.** one

**Q.** What about the “proportion of patients who reported an improvement in Ménière's vertigo attacks” value (out of all 45 study patients) of the same compound?
**A.** 84%

**Q.** What about the “patients who reported an improvement in Ménière's vertigo attacks with lamotrigine treatment” value (out of all 45 study patients, maintenance 25-200 mg BID) of the same compound?
**A.** 38 patients

**Q.** What about the “post-DHI score less than pre-DHI score, on average” value (p=0.001) of the same compound?
**A.** 19 points

**Q.** And the “vertigo attacks during 3 months of maintenance relative to 3 months of titration” value (p=0.04)?
**A.** significantly fewer

**Q.** And the “vertigo attacks during the two treatment periods compared to the 3 months prior to treatment” value (titration and maintenance periods, p<0.001, p<0.001, Wilcoxon signed rank)?
**A.** significantly fewer
